The source of these data is publication PMC6588613, “Lupin (Lupinus spp.) seeds exert anthelmintic activity associated with their alkaloid content” (Scientific Reports, 2019).

As usually defined, the IC50 is the concentration at which inhibition is half-maximal.

≈ marks a conversion by molar mass, not a printed value. Like-named read-outs stand apart in the source and are kept apart here.

Assay [1] deals with C. elegans nicotine-sensitive AChR (Cel-N-AChR, acr-16) (Caenorhabditis elegans, UniProt P48180). Nature of the assay: Xenopus laevis oocyte two-electrode voltage-clamp, Cel-N-AChR. The assay is classed as cell-based. An excerpt: (§1) The lupanine and alkaloid extracts from lupin seeds were perfused on defolliculated X. laevis oocytes (Ecocyte Bioscience, Dortmund, Germany) expressing either the C. elegans nicotine-sensitive nAChR subtype (Cel-N-nAChR, encoded by acr-16[53]), or its levamisole-sensitive counterpart (Cel-L-nAChR, encoded by unc-38, unc-63, unc-29, lev-1 and lev-8[53]). In the lack of H. contortus nicotine-sensitive AChR described, the sole levamisole-sensitive nAChR subtype 1 (Hco-L-nAChR1, encoded by unc-29.1, unc-38, unc-63 and acr-8[29]) from H. contortus was also expressed. Expression of recombinant nAChRs was achieved by microinjection of cRNAs into the oocyte cytoplasm and two-electrode voltage-clamp recordings were carried out as previously described.
Acetylcholine was applied first to check for the presence of functional nAChRs and for current normalization in presence of lupanine or alkaloid extracts.
(§2) Dose-response data were modelled as a log-logistic regression with two parameters, i.e. the curve slope and the associated median excitatory (EC50) or inhibitory (IC50) concentration using the drc package v3.0-1[58]. To account for differences in maximal response values, a third parameter was added for electrophysiology data modelling.
(Two-electrode voltage clamp is typically applied to oocytes expressing channels or transporters.)

The subject of assay [2] is drug-susceptible H. contortus infective larvae. The experiment in a line: Automated Larval Migration Assay (ALMA), drug-susceptible isolate. The assay is classed as cell-based, Haemonchus contortus. As to conditions: for larval migration as percentage of control larval migration (ALMA): drug-susceptible larvae, 250 µg/mL (compound 2: 150 µg/mL), 4 h, ± s.d. An excerpt: Parasite material was maintained by the INRA animal parasite nematode collection. Two H. contortus isolates that were. susceptible or resistant to every licensed anthelmintic compound in France (benzimidazoles, levamisole, macrocyclic lactones) were used. […] To establish whether lupin effect was conserved across GIN species, a fully susceptible French T. circumcincta isolate[51] was used. […] For every test, infective larvae were exsheathed with 0.5% hypochlorite solution and rinsed thrice with water before subsequent incubation in 5 mg/mL solutions of either crude maceration, alkaloidic fraction or non-alkaloidic fraction, levamisole (10 µM) or water, for 18 h at 20 °C. At the end of the incubation period, 100 L3 were deposited on migration plates with 20 µm mesh at 38 °C for 2 h as described elsewhere. […] Dose-response assays were run with six control replicates and four replicates by concentration tested (0, 5, 7.5 and 10 mg/mL for E063 alkaloids and 0, 2, 4, 6 and 8 mg/mL for ENERGY alkaloids).
(§3) Because of the scarcity of fractionated alkaloidic compounds (2.7 to 12.8 mg), their anthelmintic effect on infective H. contortus larvae was measured using ALMA. This technique relies on larval auto-fluorescence generated through ultraviolet excitation[42],[43]. Every alkaloidic compound was incubated for 4 h at 20 °C with 7,500 H. contortus infective larvae each. Larvae were then passed through a 20 μm sieve and left for a 60 s stabilization time before migration into the spectrofluorimeter cuvette. Cumulative fluorescence resulting from larval migration into the cuvette and correlating the total number of larvae[43] was recorded during 5 min. Each set of experiment was performed in triplicate at a concentration of 250 µg/mL but for compound 2 (150 µg/mL). Levamisole 10 µM was used as a positive control.

Assay [3] has as its system multidrug-resistant H. contortus infective larvae. Nature of the assay: Automated Larval Migration Assay (ALMA), multidrug-resistant isolate. The assay is classed as cell-based, Haemonchus contortus. The following applies: 250 µg/mL, ± s.d. The protocol:
as §3

A further assay has as its system mammalian nAChRs. The following applies: cited from earlier work.
The test system of assay [4] is drug-susceptible Haemonchus contortus infective larvae. Nature of the assay: Larval migration inhibition assay (LMIA), fully susceptible isolate. The format is cell-based.
Assay [5] has as its system multidrug-resistant Haemonchus contortus infective larvae. The experiment in a line: Larval migration inhibition assay (LMIA), multidrug resistant isolate. The format is cell-based. As to conditions: levamisole 10 µM.
Assay [6] has as its system susceptible Teladorsagia circumcincta infective larvae. The experiment in a line: Larval migration inhibition assay (LMIA), T. circumcincta. The assay is classed as cell-based. The following applies: lyophilized extracts 5 mg/mL, levamisole 10 µM, read-out: Average inhibitory effect (mean).
Excerpt: The inhibitory potential of each variety was computed as: p=1−No.treatedmigratedlarvae/AverageNo.controlmigratedlarvae
In assay [7] the test system is multidrug resistant H. contortus isolate. Nature of the assay: In vitro drug susceptibility of the multidrug resistant isolate (assay not given). The format is cell-based, Haemonchus contortus.
Assay [8] shares this test system. The assay is classed as in vivo, Haemonchus contortus. The following applies: for in vivo Faecal Egg Reduction Test value: 14 days after treatment; for eggs/g 14 days after treatment: before treatment 11400 (levamisole), 1450 (ivermectin).
Assay [9] deals with fully susceptible H. contortus isolate.
The subject of assay [10] is fully susceptible French T. circumcincta isolate. The experiment in a line: microbe, parasite or virus in culture. As to conditions: Teladorsagia circumcincta, read-out: IC50 (ALMA).
Assay [11] has as its system C. elegans levamisole-sensitive AChR (Cel-L-AChR). The experiment in a line: Xenopus laevis oocyte two-electrode voltage-clamp, Cel-L-AChR. The assay is classed as cell-based, Caenorhabditis elegans.
Excerpt: as §1, §2

The target of assay [12] is H. contortus levamisole-sensitive AChR (Hco-L-AChR-1) (Haemonchus contortus, UniProt A9XX24+D6MYE9+D6MYF3+D6MYF4). The experiment in a line: Xenopus laevis oocyte two-electrode voltage-clamp, Hco-L-AChR-1. The format is cell-based.
Excerpt: as §1, §2

Assay [13] deals with susceptible control H. contortus. Nature of the assay: In vitro drug susceptibility of the susceptible control (assay not given). The format is cell-based. As to conditions: Haemonchus contortus.

Chain of C. elegans nicotine-sensitive AChR (Cel-N-AChR, acr-16) (P48180 20-498): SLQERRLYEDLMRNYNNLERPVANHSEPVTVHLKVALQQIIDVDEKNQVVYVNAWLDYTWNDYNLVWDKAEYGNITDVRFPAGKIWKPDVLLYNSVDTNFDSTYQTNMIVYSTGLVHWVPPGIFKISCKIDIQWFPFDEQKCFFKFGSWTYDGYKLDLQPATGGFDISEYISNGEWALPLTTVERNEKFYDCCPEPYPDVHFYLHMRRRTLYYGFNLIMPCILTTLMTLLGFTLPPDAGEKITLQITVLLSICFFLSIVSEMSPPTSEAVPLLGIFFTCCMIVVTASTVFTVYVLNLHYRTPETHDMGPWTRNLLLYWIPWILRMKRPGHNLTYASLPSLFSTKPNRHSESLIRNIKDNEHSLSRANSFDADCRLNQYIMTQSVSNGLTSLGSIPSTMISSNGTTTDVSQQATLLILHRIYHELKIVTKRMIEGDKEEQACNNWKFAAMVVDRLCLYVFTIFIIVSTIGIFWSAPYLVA
Chain of C. elegans levamisole-sensitive AChR (Cel-L-AChR) (Q27218 32-507): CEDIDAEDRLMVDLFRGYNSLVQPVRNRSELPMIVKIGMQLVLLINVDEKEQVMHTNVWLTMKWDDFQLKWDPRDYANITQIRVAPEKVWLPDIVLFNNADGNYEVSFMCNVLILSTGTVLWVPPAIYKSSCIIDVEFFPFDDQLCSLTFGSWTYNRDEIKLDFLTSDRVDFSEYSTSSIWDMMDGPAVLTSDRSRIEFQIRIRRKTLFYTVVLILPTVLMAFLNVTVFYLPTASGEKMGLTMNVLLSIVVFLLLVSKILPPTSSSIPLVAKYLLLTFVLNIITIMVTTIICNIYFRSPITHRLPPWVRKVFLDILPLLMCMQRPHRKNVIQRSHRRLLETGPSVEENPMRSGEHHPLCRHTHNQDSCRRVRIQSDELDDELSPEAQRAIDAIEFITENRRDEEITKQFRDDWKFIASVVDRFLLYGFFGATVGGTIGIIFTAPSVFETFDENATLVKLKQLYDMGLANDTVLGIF
Chain of C. elegans levamisole-sensitive AChR (Cel-L-AChR) (P48181 27-493, further chain): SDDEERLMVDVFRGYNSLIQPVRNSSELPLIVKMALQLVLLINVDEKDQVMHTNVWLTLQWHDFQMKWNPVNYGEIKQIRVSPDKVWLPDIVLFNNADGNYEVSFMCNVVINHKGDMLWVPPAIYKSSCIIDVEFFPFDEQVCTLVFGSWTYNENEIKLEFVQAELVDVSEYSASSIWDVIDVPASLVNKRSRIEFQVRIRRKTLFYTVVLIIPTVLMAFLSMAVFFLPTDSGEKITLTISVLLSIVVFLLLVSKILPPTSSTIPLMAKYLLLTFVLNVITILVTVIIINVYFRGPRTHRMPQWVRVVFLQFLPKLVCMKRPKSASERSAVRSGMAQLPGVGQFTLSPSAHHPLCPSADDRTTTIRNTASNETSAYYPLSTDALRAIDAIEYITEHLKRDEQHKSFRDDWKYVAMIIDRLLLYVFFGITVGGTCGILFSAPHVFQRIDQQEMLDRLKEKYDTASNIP
Chain of C. elegans levamisole-sensitive AChR (Cel-L-AChR) (Q23022 17-511, further chain): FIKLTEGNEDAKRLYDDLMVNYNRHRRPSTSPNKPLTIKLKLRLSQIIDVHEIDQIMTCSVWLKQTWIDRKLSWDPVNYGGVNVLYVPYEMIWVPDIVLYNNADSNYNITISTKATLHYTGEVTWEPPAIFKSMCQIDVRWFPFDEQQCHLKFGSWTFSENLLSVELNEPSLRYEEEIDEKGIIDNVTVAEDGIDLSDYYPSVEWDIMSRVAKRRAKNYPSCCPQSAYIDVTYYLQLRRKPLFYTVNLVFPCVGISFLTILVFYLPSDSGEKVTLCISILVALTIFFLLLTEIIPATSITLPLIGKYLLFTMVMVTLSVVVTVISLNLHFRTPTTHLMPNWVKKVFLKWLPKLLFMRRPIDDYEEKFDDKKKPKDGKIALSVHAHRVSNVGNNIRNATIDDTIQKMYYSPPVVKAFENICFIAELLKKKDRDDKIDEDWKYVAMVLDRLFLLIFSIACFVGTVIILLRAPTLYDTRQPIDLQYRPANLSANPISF
Chain of C. elegans levamisole-sensitive AChR (Cel-L-AChR) (Q9N587 24-502, further chain): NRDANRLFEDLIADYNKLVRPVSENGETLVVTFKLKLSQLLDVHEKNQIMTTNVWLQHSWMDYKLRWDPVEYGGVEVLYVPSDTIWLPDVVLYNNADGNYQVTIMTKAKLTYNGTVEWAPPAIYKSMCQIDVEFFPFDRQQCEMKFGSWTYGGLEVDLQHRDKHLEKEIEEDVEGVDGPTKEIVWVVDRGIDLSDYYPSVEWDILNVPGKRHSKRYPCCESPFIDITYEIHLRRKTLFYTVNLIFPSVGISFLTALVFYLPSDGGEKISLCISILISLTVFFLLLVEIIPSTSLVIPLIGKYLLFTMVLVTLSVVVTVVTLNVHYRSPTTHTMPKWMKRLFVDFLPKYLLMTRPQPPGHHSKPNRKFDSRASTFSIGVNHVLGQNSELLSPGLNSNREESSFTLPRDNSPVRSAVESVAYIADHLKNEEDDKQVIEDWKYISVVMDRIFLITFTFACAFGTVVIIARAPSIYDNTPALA
Chain of C. elegans levamisole-sensitive AChR (Cel-L-AChR) (Q93329 entry or part of it, further chain): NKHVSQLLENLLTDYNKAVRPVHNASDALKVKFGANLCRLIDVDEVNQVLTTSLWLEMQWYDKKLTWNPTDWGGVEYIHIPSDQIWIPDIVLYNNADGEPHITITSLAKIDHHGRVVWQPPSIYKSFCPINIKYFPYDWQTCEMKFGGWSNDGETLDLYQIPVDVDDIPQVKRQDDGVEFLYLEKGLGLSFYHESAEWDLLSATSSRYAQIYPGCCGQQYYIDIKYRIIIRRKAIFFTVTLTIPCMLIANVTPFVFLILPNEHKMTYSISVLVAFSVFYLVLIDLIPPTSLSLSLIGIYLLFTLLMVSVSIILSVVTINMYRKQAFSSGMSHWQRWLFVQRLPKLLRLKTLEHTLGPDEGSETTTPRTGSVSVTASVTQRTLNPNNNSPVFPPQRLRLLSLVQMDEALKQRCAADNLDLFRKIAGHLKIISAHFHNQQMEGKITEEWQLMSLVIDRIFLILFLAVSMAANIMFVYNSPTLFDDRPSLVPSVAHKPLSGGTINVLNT
Chain of H. contortus levamisole-sensitive AChR (Hco-L-AChR-1) (D6MYE9 entry or part of it): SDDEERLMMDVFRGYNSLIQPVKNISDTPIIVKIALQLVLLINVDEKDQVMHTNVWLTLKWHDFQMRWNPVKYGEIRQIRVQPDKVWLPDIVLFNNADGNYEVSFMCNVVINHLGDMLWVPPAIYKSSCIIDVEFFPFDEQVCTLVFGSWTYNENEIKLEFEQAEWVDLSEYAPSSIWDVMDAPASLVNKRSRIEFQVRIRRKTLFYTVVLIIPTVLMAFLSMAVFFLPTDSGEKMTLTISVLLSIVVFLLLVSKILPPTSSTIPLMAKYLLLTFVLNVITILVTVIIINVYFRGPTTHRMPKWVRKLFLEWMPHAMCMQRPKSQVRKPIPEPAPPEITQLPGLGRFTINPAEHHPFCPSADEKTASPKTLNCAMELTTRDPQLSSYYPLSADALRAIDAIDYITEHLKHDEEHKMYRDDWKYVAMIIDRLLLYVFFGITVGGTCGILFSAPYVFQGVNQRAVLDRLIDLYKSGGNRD
Chain of H. contortus levamisole-sensitive AChR (Hco-L-AChR-1) (D6MYF4 entry or part of it): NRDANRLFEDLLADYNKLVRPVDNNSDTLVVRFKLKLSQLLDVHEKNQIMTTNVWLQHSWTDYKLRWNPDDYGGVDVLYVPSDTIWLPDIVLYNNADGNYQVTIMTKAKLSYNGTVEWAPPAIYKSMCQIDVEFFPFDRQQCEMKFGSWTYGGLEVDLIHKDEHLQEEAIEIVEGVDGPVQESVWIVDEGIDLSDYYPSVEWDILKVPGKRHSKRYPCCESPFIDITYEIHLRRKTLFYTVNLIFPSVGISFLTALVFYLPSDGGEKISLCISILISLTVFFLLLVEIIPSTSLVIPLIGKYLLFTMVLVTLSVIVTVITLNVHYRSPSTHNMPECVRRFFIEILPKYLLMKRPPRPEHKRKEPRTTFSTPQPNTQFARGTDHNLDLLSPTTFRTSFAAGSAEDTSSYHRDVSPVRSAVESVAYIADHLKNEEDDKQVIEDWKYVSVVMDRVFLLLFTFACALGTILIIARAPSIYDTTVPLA
Chain of H. contortus levamisole-sensitive AChR (Hco-L-AChR-1) (A9XX24 entry or part of it): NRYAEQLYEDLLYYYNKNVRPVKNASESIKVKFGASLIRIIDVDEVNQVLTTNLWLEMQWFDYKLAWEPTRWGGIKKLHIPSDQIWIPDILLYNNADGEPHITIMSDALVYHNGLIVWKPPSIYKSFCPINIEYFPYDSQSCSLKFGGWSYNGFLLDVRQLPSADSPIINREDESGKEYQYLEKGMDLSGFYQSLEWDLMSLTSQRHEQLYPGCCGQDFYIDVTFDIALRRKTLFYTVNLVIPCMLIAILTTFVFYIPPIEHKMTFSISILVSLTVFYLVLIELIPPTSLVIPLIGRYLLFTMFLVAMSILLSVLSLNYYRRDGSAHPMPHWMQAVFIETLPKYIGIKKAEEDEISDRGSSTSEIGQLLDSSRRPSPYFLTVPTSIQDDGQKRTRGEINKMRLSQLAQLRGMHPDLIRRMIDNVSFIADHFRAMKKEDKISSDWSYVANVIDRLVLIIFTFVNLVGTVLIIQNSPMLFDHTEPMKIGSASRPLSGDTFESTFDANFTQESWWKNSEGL
Chain of H. contortus levamisole-sensitive AChR (Hco-L-AChR-1) (D6MYF3 entry or part of it): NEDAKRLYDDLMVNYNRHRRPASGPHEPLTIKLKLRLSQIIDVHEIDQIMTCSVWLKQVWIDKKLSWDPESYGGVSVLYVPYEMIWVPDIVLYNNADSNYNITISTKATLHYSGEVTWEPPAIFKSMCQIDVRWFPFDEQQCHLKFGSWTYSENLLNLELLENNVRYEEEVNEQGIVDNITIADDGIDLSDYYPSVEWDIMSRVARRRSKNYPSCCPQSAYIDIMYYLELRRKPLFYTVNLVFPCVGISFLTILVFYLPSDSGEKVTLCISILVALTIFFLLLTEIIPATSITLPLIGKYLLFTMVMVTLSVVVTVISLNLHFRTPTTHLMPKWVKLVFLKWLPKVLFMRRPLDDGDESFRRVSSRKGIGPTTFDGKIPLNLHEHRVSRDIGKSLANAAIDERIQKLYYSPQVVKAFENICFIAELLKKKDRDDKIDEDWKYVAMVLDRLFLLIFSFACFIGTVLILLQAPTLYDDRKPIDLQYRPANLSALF

On to `CC(=O)OCC[N+](C)(C)C` [Acetylcholine, acetylcholine], for which the EC50 is 21.7 ± 0.9 µM in assay [1] (EC50, acetylcholine alone) and 80.6 ± 27.5 µM in [1] (EC50 of acetylcholine with lupanine (300 µM), in the presence of 300 µM lupanine).

As for `CC=C(C)C(=O)OC1CCN2C[C@@H]3C[C@@H](CN4C(=O)CCC[C@H]34)[C@@H]2C1` (stereo partly shown) [Compound 1, 13-angeloyloxy or 13-tigloyloxy-lupanine], in [2], the “larval migration as percentage of control larval migration (ALMA)” value is 53.6%. Besides, in assay [3], the “larval migration as percentage of control (ALMA)” value stood at 62.4%.

As for `O[C@@]12C[C@@H](CN3CCCC[C@H]31)[C@H]1CCCCN1C2` [Compound 4, 7-hydroxysparteine], the “larval migration as percentage of control larval migration (ALMA)” value in assay [2] was 76%.

Take `CC=C(C)C(=O)O[C@H]1CCN2C(=O)[C@@H]3C[C@@H](CN4C(=O)CCC[C@H]34)[C@@H]2C1` [Compound 5]: the “larval migration as percentage of control larval migration (ALMA)” value in assay [2] is reported as “did not significantly inhibit”.

On to `O=C(OC1CCN2C[C@@H]3C[C@@H](CN4C(=O)CCC[C@H]34)[C@@H]2C1)c1ccccc1` (stereo partly shown) [Compound 6], for which the “larval migration as percentage of control larval migration (ALMA)” value in assay [2] was “did not significantly inhibit”.

For `O=c1cccc2n1C[C@@H]1CNC[C@H]2C1` [cytisine], the half-inhibitory concentration (IC50) in the assay on mammalian nAChRs was 0.14 µM.

For the compound `c1ccc([C@H]2CN3CCSC3=N2)cc1` [levamisole], the inhibition at 10 µM in assay [4] (Haemonchus contortus, H. contortus drug susceptible, lyophilized extracts 5 mg/mL, levamisole 10 µM, read-out: Average inhibitory effect) is 99.5%; in assay [4] (Haemonchus contortus, susceptible H. contortus L3, levamisole 10 µM, extract 5 mg/mL, estimate ± s.e.m., read-out: mean inhibition of larval migration), 99.3%; in [5] (Haemonchus contortus, H. contortus multidrug resistant, lyophilized extracts 5 mg/mL, read-out: Average inhibitory effect) it was 30.5%; in assay [6], 73.7%. The IC50 in assay [4] (Haemonchus contortus, concentration response assay, susceptible H. contortus isolate) was found to be 1.61 µM; in assay [10], 1.79 µM. Further, the “Percentage of migrating larvae” value is 12.1% in assay [4] (fully susceptible isolate, fractions 2.5 mg/mL, fractions 1 and 8 0.625 mg/mL, levamisole 10 µM, negative control 100); 39.7% in assay [5] (multidrug-resistant isolate, fractions 2.5 mg/mL, fractions 1 and 8 0.625 mg/mL, negative control 100). Besides, the EC50 was found to be 1.1 µM in [2] (Haemonchus contortus, fully susceptible isolate, read-out: in vitro EC50 (Automated Larval Migration inhibition Assay)) and 15.6 µM in [7] (Haemonchus contortus). In addition, in assay [8], the “in vivo Faecal Egg Reduction Test value” came to 31.6%. In addition, in assay [8], the “eggs/g 14 days after treatment” value came to 7800 eggs/g. The “Faecal Egg Count reduction in vivo” value in [9] is given as 100%.

For `O=C1CCC[C@@H]2[C@H]3C[C@@H](CN12)[C@@H]1CCCCN1C3` [lupanine], the “inhibition of the control migration” value in [4] (concentration response assay, 0 to 3 mM, susceptible isolate, linear, highly variable) is “less than 25%”. The “drop-off in the maximum amplitude of ACh-elicited currents” value in [1] (300 µM lupanine) worked out at 81%. In addition, the IC50 in [1] (n = 5, read-out: IC50 on ACh-elicited currents) is 116 ± 9.7 µM; in [11] (read-out: IC50 on ACh-elicited currents, Cel-L-AChR, n = 5), 549 ± 64.1 µM; in [12] (Hco-L-AChR-1, n = 5, read-out: IC50 on ACh-elicited currents), 540 ± 90.2 µM; in the assay on mammalian nAChRs, 5 µM. In assay [11] (300 µM lupanine, levamisole-sensitive receptors), the “decrease in maximal ACh-elicited current” value was determined as 38%. In addition, the inhibition at 300 µM in assay [12] (read-out: decrease in maximal ACh-elicited current) was 38%.

Regarding `CSc1nc2cc(Cl)c(Oc3cccc(Cl)c3Cl)cc2[nH]1` [triclabendazole], the EC50 turned out to be 0.587 µg/mL in [7] (Haemonchus contortus) and 0.022 µg/mL (≈ 0.0612 µM) in assay [13].

The compound ivermectin showed an EC50 in [7] of 0.055 µM. Moreover, in assay [8], the “in vivo Faecal Egg Reduction Test value” was 67.8% and the “eggs/g 14 days after treatment” value is given as 450 eggs/g.
